SMILES strings stand for the structures. Converted amounts (≈) assume the structure as drawn. Where two headings read alike, the source gives them in different places.

We go through three compounds from paper PMC5937083, “Physicochemical, Stress Degradation Evaluation and Pharmacokinetic Study of AZGH101; a New Synthesized COX2 Inhibitor after I.V. and Oral Administration in Male and Female Rats” (Iranian Journal of Pharmaceutical Research : IJPR, 2018).

The conditions of data set [1]: 'It was reported'; cited from earlier work.
Data set [2] in a line: Aqueous solubility (OECD Guideline No. 105). The data set is classed as physicochemical. Conditions: water; 3 replications. The procedure: (§1) Melting point was determined with an Electrothermal 9200 apparatus (UK). Aqueous solubility and octanol/water partition coefficient of the synthesized derivative was determined according to Organisation for Economic Co-operation and Development (OECD) Guideline for Testing of Chemicals, No.105, and No. 107 respectively ([11]-[13]).

Data set [3] is described as follows: Octanol/water partition coefficient, log P (OECD Guideline No. 107). Format: physicochemical. Conditions: n = 3, read-out: log P (logarithm of octanol/water partition coefficient). The procedure:
as §1

A short description of data set [4]: Forced degradation stability study (ICH guideline for new drug substance). The data set is classed as physicochemical. Conditions: for Forced tests results, Mean ±SD: fraction recovered intact, 3 replications. The procedure: The stability study was conducted according to forced degradation protocol ICH guideline for new drug substance ([14]-[16]). In brief, the stability of AZGH101 at acidic, basic, and neutral medium was evaluated. Moreover, the effect of oxidative condition (H2O2, 3 and 30%), thermal degradation at solid state, and photolysis on the stability of AZGH101 was examined.

A short description of data set [5]: Pharmacokinetic study after oral and intravenous administration to Wistar rats. The data set is classed as in vivo. Conditions: for k el: Wistar, read-out: β (elimination rate constant) (converted); for bioavailability: oral 20 mg/kg vs intravenous 10 mg/kg; for half-life: read-out: t1/2 β (converted). On the procedure:
Male and female Wistar rats weighting 250 ± 10 g were used. They were kept at 25 ± 1 °C temperature and controlled humidity with 12 h light/dark cycle. The animals were fasted overnight before the experiment and had free access to water. The study protocol was approved by the local committee for animal experiments of Shahid Beheshti University of Medical Sciences (Tehran, Iran).
Male or female rats were chosen randomly (6 rats/group) and assigned to receive […] solution in normal saline for intravenous (IV) via the tail vein or oral administration via oral gavages. The administered doses in both sexes for intravenous (IV) and oral studies were 10 mg/kg and 20 mg/kg, respectively. Blood samples were collected from the tail vein immediately prior to administration (blank sample) and at 0.08, 0.25, 0.5, 1, 2, 4, 6, 8, 10, 21 and 22 h after administration into heparinized micro-tubes. Blood samples were centrifuged at 1000 g for 10 min and the separated plasmas were kept at –20 °C until analysis.
Pharmacokinetic analyses were performed using WinNonlin software (Pharsight Corporation, Mountain View, USA, Version 3.2) and two-compartmental model was chosen. The following pharmacokinetic parameters were estimated: terminal elimination half-life (t1/2), area under the plasma concentration versus time curve from zero to the infinity (AUC 0-∞), distribution and elimination rate constants (α, β), volume of distribution (Vd), and total body clearance (CL). The peak plasma concentration (Cmax) and the time to reach Cmax (Tmax) for oral dose were obtained directly from the observed individual plasma concentration-time data.

The subject of the next data set is COX-2. Conditions: cited from earlier work.
The conditions of data set [6]: cited from earlier work.
Setting [7] is: oral 20 mg/kg, female Wistar rats.
Where [8] appears, read: oral 20 mg/kg, male Wistar rats.
[9] abbreviates: rat, plasma, intravenous 10 mg/kg, female Wistar rats.
The mark [10] stands for this setting: rat, plasma, intravenous 10 mg/kg, male Wistar rats.
Where [11] appears, read: rat, plasma, oral 20 mg/kg, female Wistar rats.
Setting [12] is: rat, plasma, oral 20 mg/kg, male Wistar rats.

For the compound `Cc1ccc(-c2cc(C(F)(F)F)nn2-c2ccc(S(N)(=O)=O)cc2)cc1` [celecoxib], in data set [1], the solubility in water is 3.3 µg/mL (≈ 8.65 µM).

The term solubility denotes how much of the substance goes into solution per volume. Broadly, the bioavailability is the share of a dose that reaches the circulation, judged against a reference dose that is usually intravenous. As usually defined, the AUC(0-inf) is the area under the concentration-time curve extrapolated to infinity. Read a high AUC(0-inf) as more exposure. For orientation: Cmax means the peak of the concentration-time curve. The term Tmax denotes the time at which the peak concentration occurs. Broadly, the IC50 is the concentration that gives 50% inhibition. The compound `CS(=O)(=O)c1ccc(-c2cc(C(=O)O)c3cc(C(=O)c4ccccc4)ccc3n2)cc1` [AZGH101, 6-benzoyl-2-(4-(methylsulfonyl)phenyl)quinoline-4-carboxylic acid] had a solubility in data set [2] of 1.4 ± 0.17 µg/mL (≈ 3.24 µM). In data set [3], the logP worked out at 3.82 ± 0.001. In addition, the “Forced tests results, Mean ±SD” value is 0.95±0.02 in data set [4] (Hydrolysis (Acid)); 0.92±0.03 in data set [4] (Hydrolysis (Base)); 0.94±0.02 in data set [4] (Hydrolysis (Buffer pH=7)); 0.93±0.04 in data set [4] (Oxidative stress (H2O2-3%)); 0.91±0.02 in data set [4] (Oxidative stress (H2O2-30%)); 0.94±0.02 in data set [4] (Photodegradation (Acid)). Also, the “Forced tests results, Mean ±SD” value in data set [4] (Photodegradation (Base)) was 0.94±0.01; in data set [4] (Photodegradation (Buffer pH=7)) it was 0.95±0.02; in data set [4] (Thermal Degradation (solid phase)), 0.96±0.03. Further, in data set [4] (in all of the examined stress conditions), the AZGH101 recovered intact entry is “more than 90%”. Besides, the k el in data set [5] (female, rat, plasma, iv, 10 mg/kg, intravenous 10 mg/kg, female Wistar rats) was 9.72e-05 s⁻¹; in data set [5] (female, rat, plasma, po, 20 mg/kg, oral 20 mg/kg, female Wistar rats), 3.61e-05 s⁻¹; in data set [5] (male, rat, plasma, iv, 10 mg/kg, intravenous 10 mg/kg, male Wistar rats), 9.72e-05 s⁻¹; in data set [5] (male, rat, plasma, po, 20 mg/kg, oral 20 mg/kg, male Wistar rats), 3.89e-05 s⁻¹. The “α (distribution rate constant)” value in data set [5] (intravenous 10 mg/kg, female Wistar rats) came to 3.70 ± 0.80 h⁻¹; in data set [5] (intravenous 10 mg/kg, male Wistar rats), 4.25 ± 0.99 h⁻¹; in data set [5] (setting [7]), 3.86 ± 2.99 h⁻¹; in data set [5] (setting [8]), 3.34 ± 1.26 h⁻¹. Besides, the “β (elimination rate constant)” value in data set [5] (intravenous 10 mg/kg, female Wistar rats, 10 mg/kg) was found to be 0.355 ± 0.006 h⁻¹; in data set [5] (intravenous 10 mg/kg, male Wistar rats, 10 mg/kg) it was 0.349 ± 0.008 h⁻¹. For the same compound, the Cl in data set [5] (setting [7]) stood at 31.73 ± 3.31 mL/h; in data set [5] (setting [8]) it was 32.45 ± 1.65 mL/h. The Ka in data set [5] (setting [7]) came to 1.00 ± 0.10 h⁻¹; in data set [5] (setting [8]), 0.92 ± 0.18 h⁻¹. Also, the Vd came out at 245.87 ± 44.86 mL in data set [5] (setting [7]); 233.55 ± 27.82 mL in data set [5] (setting [8]); 89.3 ± 7.68 mL in data set [5] (rat, plasma, intravenous 10 mg/kg, female Wistar rats, read-out: Vd); 94.1 ± 6.42 mL in data set [5] (rat, plasma, intravenous 10 mg/kg, male Wistar rats, read-out: Vd). Besides, the bioavailability is about 27% in data set [5] (rat, plasma, Wistar rats, both sexes, read-out: oral absolute bioavailability); 27.73 ± 0.01% in data set [5] (rat, plasma, female Wistar rats, read-out: F (oral absolute bioavailability)); 26.02 ± 0.03% in data set [5] (rat, plasma, male Wistar rats, read-out: F (oral absolute bioavailability)). For the same compound, the AUC(0-inf) in data set [5] (setting [9]) was 79400 ± 5810 ng·h/mL; in data set [5] (setting [10]), 77100 ± 3620 ng·h/mL; in data set [5] (setting [11]), 41300 ± 4200 ng·h/mL; in data set [5] (setting [12]), 42800 ± 2240 ng·h/mL. Besides, the C0 in data set [5] (setting [9]) was 86.8 ± 11.3 µg/mL; in data set [5] (setting [10]) it was 92.3 ± 11 µg/mL. The clearance in data set [5] (setting [9]) was 0.527 mL/min; in data set [5] (setting [10]), 0.541 mL/min. Besides, the half-life in data set [5] (setting [9]) was 1.97 ± 0.06 h; in data set [5] (setting [10]), 2.01 ± 0.04 h; in data set [5] (setting [11]), 5.34 ± 0.48 h; in data set [5] (setting [12]), 4.99 ± 0.52 h. The Cmax was 21.8 ± 1.33 µg/mL in data set [5] (setting [11]) and 20.4 ± 1.49 µg/mL in data set [5] (setting [12]). Also, the Tmax in data set [5] (setting [11]) and in data set [5] (setting [12]) was 0.5 h in each case. Further, the IC50 in the data set with COX-2 was 0.077 µM. The “selectivity index (COX-1 IC50 / COX-2 IC50)” value with COX-2 is “less than 500”. Moreover, the “tendency against inhibition of COX-2, times greater than ketoprofen” value with COX-2 (relative to ketoprofen) is given as “about 10 times”.

By log P is commonly meant a log measure of how a compound divides between an organic and an aqueous phase. Take `CC(C(=O)O)c1cccc(C(=O)c2ccccc2)c1` (stereo not drawn) [ketoprofen]: in data set [6], the “log P” value is 3.1.
